What all share (assay): relative viability (nuclei count vs DMSO), 5 days (fraction); higher = more cells survive
Compound in test [1]: CC(C)C[C@H](NC(=O)[C@H](CCc1ccccc1)NC(=O)CN1CCOCC1)C(=O)N[C@@H](Cc1ccccc1)C(=O)N[C@@H](CC(C)C)C(=O)[C@@]1(C)CO1 [Carfilzomib] + CS(=O)(=O)CCNCc1ccc(-c2ccc3ncnc(Nc4ccc(OCc5cccc(F)c5)c(Cl)c4)c3c2)o1 [Lapatinib] (partner 2 µM)
In a few lines: (§1)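 Relative viability is defined as nuclei in treated wells over nuclei in vehicle wells. Duplicate plates were run and medians reported. Lung cancer cell lines in 1536-well plates were dosed by pin tool one day after seeding, with one drug or with a fixed anchor-drug dose plus five library-drug doses (not always all listed) in √10 steps, and nuclei were counted after 5 days.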

Compound in test [2]: CC(C)C[C@H](NC(=O)[C@H](CCc1ccccc1)NC(=O)CN1CCOCC1)C(=O)N[C@@H](Cc1ccccc1)C(=O)N[C@@H](CC(C)C)C(=O)[C@@]1(C)CO1 [Carfilzomib] + Nc1ncn([C@H]2C[C@H](O)[C@@H](CO)O2)c(=O)n1 [Decitabine] (partner 2 µM)
In a few lines: as §1

Compound in test [3]: CC(C)C[C@H](NC(=O)[C@H](CCc1ccccc1)NC(=O)CN1CCOCC1)C(=O)N[C@@H](Cc1ccccc1)C(=O)N[C@@H](CC(C)C)C(=O)[C@@]1(C)CO1 [Carfilzomib] + O=C(c1cc(Cc2n[nH]c(=O)c3ccccc23)ccc1F)N1CCN(C(=O)C2CC2)CC1 [Olaparib] (partner 8 µM)
In a few lines:
as §1

Compound in test [4]: O=C(c1cc(Cc2n[nH]c(=O)c3ccccc23)ccc1F)N1CCN(C(=O)C2CC2)CC1 [Olaparib] + CS(=O)(=O)CCNCc1ccc(-c2ccc3ncnc(Nc4ccc(OCc5cccc(F)c5)c(Cl)c4)c3c2)o1 [Lapatinib] (partner 2 µM)
In a few lines: as §1

The values that follow come from the supplement of paper PMC10307832.

Take NCI-H1793: the relative viability stood at 0.772 in test [1] (first compound 0.003162 µM); 0.476 in test [1] (first compound 0.01 µM); 0.424 in test [1] (first compound 0.03162 µM); 0.114 in test [1] (first compound 0.1 µM); 0.494 in test [2] (first compound 0.001 µM); 0.61 in test [2] (first compound 0.003162 µM). The relative viability in test [2] (first compound 0.01 µM) turned out to be 0.531; in test [2] (first compound 0.03162 µM), 0.562; in test [2] (first compound 0.1 µM), 0.194; in test [3] (first compound 0.001 µM), 0.811; in test [3] (first compound 0.003162 µM), 1.05; in test [3] (first compound 0.01 µM), 0.924. In addition, the relative viability in test [3] (first compound 0.03162 µM) was 0.732; in test [3] (first compound 0.1 µM) it was 0.223; in test [4] (first compound 0.08 µM), 0.641; in test [4] (first compound 0.253 µM), 0.5; in test [4] (first compound 2.53 µM), 0.578; in test [4] (first compound 8 µM), 0.649.
